Read-outs that look alike come from different tables or passages of the source.
Assays:
Format in all cases: cell-based
[1] = target: T1, human MR (full-length) (Homo sapiens, UniProt P08235); experiment: U2OS-MR/MMTV luciferase reporter cell line (full-length receptor); conditions: for Log EC50: agonist mode, 20 h, log10 of molar EC50, mean ± SEM; for Log EC50 / Log IC50: MR/MMTV; for Log IC50: in the presence of 1 nM aldosterone, log10 of molar IC50, mean ± SEM
T1 construct: expression vectors encoding full-length steroid receptors: pcDNA3-hAR, pcDNA3-hGR and pcDNA3-hMR; expressed in transfected cells; host or cells: U2OS
T1 sequence (P08235 1-984): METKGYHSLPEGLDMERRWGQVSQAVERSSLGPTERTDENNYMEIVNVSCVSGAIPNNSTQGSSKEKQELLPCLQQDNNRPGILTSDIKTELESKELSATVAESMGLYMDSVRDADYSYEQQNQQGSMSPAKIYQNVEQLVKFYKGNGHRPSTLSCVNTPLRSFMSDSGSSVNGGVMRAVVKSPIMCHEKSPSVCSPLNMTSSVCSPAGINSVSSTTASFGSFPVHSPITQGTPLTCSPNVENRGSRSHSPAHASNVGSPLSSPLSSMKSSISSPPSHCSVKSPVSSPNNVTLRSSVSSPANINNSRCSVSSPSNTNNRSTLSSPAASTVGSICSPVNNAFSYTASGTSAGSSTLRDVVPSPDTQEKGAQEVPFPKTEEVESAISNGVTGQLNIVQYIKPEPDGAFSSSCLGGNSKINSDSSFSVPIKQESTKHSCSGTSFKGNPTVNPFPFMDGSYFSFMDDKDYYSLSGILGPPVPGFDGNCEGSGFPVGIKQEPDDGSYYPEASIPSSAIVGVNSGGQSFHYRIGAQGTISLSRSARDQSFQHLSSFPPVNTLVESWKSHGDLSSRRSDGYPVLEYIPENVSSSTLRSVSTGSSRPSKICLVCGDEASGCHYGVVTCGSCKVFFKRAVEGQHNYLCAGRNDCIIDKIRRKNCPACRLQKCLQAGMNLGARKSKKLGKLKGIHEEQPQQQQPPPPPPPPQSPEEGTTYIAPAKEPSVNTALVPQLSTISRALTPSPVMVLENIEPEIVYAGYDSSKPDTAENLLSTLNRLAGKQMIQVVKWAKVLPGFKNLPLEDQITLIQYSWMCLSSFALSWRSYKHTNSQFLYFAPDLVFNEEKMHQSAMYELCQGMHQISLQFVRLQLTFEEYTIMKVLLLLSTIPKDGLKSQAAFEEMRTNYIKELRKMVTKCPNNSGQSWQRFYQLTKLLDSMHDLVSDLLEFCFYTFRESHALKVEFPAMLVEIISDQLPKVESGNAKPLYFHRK

[2] = target: T2, human ERβ (full-length) (Homo sapiens, UniProt Q92731); experiment: U2OS-ERβ/3xERE luciferase reporter cell line (full-length receptor); conditions: for EC50: read-out: Log EC50 (converted)
T2 construct: expression vectors encoding full-length steroid receptors: pcDNA3-hERα and pcDNA3-ERβ; expressed in transfected cells; host or cells: U2OS
T2 sequence (Q92731 whole entry): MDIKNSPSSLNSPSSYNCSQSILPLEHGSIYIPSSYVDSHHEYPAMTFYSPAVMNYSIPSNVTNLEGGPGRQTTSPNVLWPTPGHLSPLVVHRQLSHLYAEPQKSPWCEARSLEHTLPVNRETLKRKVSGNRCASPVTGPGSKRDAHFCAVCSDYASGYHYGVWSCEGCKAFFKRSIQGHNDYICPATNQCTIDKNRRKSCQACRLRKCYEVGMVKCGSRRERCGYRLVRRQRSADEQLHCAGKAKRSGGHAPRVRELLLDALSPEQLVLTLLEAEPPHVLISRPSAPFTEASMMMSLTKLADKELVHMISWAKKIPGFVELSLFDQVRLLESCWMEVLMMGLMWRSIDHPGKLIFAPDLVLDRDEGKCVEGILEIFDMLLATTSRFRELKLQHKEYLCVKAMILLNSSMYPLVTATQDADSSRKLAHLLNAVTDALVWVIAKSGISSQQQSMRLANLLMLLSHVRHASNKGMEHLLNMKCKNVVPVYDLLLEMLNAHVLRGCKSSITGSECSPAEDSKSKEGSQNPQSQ

[3] = target: T3, human GR (full-length) (Homo sapiens, UniProt P04150); experiment: U2OS-GR/3xGRE luciferase reporter cell line (full-length receptor); conditions: for Log EC50: agonist mode, 20 h, log10 of molar EC50, mean ± SEM; for Log EC50 / Log IC50: GR/3xGRE; for Log IC50: antagonist mode, in the presence of 5 nM dexamethasone, log10 of molar IC50, mean ± SEM
T3 construct: expression vectors encoding full-length steroid receptors: pcDNA3-hAR and pcDNA3-hGR; host or cells: U2OS
T3 sequence (P04150 1-777): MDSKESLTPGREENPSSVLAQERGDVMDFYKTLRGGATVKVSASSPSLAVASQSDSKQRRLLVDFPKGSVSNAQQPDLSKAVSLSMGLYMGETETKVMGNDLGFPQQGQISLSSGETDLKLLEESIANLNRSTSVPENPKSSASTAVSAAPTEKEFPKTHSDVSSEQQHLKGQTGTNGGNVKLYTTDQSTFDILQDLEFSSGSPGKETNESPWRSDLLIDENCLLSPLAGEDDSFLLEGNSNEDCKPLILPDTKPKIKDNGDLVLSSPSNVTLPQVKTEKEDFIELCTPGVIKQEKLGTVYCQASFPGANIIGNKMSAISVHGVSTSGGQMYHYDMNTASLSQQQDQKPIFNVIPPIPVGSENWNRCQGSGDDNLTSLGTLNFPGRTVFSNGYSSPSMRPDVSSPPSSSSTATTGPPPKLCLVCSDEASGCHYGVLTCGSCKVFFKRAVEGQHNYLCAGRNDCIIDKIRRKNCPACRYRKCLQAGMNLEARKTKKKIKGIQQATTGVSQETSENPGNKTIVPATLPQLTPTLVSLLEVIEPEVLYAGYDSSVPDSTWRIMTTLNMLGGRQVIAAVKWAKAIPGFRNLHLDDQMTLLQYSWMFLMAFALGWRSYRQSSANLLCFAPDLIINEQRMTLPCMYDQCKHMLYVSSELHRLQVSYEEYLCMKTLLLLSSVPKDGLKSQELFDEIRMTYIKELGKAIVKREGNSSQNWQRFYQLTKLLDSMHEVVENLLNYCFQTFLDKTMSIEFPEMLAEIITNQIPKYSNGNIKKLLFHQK

[4] = target: T4, human ERα (full-length) (Homo sapiens, UniProt P03372, G400V); experiment: U2OS-ERα/3xERE luciferase reporter cell line (full-length receptor); conditions: for luciferase activity in ERα reporter cell lines: even at 10 μM concentration
T4 sequence (P03372 1-595 G400V): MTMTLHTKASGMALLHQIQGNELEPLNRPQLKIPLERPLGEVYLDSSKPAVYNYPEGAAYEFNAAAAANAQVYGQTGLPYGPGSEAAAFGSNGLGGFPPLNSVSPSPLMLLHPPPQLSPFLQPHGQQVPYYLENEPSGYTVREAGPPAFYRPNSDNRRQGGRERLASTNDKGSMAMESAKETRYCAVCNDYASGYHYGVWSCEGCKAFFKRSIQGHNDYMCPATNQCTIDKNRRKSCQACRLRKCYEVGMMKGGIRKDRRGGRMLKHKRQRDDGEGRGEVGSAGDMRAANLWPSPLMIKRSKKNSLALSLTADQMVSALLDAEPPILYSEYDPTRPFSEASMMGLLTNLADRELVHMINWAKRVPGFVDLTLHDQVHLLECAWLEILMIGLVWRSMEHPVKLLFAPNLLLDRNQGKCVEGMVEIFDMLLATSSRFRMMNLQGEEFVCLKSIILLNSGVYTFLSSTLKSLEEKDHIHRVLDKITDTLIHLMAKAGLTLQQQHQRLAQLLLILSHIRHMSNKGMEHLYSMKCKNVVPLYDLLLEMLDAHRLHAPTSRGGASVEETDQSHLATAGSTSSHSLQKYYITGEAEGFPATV

[5] = target: T5, ERα^G420C-LBD fused to Gal4-DBD (Homo sapiens, UniProt P03372, G420C); experiment: U2OS-ERα^G420C-LBD/9xGal4UAS luciferase reporter cell line
T5 construct: expressed in transfected cells; host or cells: U2OS
T5 sequence (P03372 311-547 G420C limits assumed): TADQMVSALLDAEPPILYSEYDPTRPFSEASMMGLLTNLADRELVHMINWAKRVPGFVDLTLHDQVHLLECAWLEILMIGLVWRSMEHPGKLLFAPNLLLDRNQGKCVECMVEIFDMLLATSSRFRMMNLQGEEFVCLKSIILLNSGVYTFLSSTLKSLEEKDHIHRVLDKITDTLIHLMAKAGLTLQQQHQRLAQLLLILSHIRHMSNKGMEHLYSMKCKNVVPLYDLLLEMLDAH

For CC[C@@H]1Cc2cc(O)ccc2C2=C1c1ccc(O)cc1C[C@H]2CC (relative stereo) [R.R-THC, (R,R)-cis-diethyltetrahydro-2,8-chrysenediol], the “Log EC50” value [1] was greater than -5.40 M, the “Log IC50” value ([1]; antagonist mode) was -5.45 ± 0.22 M and the “Log EC50” value ([2]; agonist mode, ERβ/3xERE, 20 h, log10 of molar EC50, mean ± SEM) was greater than -5.00 M. The “Log IC50” value ([2]; antagonist mode, ERβ/3xERE, in the presence of 1 nM E2, log10 of molar IC50, mean ± SEM) was -7.30 ± 0.14 M, the “Log EC50” value [3] was greater than -5.00 M and the “Log IC50” value [3] was greater than -5.00 M.

C[C@]12CCC(=O)C=C1CC[C@@H]1[C@@H]2[C@@H](O)C[C@]2(C=O)[C@@H](C(=O)CO)CC[C@@H]12 [Aldosterone, aldosterone] gave an EC50 [4] greater than 10 µM, an EC50 [2] greater than 10 µM and an EC50 ([3]; read-out: Log EC50 (converted)) of 0.0302 µM. The EC50 [5] was greater than 10 µM.

C[C@H]1C[C@H]2[C@@H]3CCC4=CC(=O)C=C[C@]4(C)[C@@]3(Cl)[C@@H](O)C[C@]2(C)[C@@]1(O)C(=O)CO [Beclomethasone, beclomethasone] was tested, and the “Log EC50” value [1] was -7.97 ± 0.12 M, the “Log IC50” value ([1]; antagonist mode) was greater than -5.00 M and the “activity profile in words” value ([1]; full-length MR format, antagonist mode) was “no sign of antagonistic activity”. The “luciferase activity in ERα reporter cell lines” value [4] was “did not find any sign of luciferase activity”, the “Log EC50” value ([4]; agonist mode, ERα/3xERE, 20 h, value is log10 of molar EC50, mean ± SEM) was greater than -5.00 M and the “Log IC50” value ([4]; antagonist mode, ERα/3xERE, in the presence of 1 nM E2, log10 of molar IC50, mean ± SEM) was greater than -5.00 M. The “Log EC50” value ([5]; agonist mode, ERα^G420C-LBD/9xGal4UAS, 20 h, log10 of molar EC50, mean ± SEM) was greater than -5.00 M and the “Log IC50” value ([5]; antagonist mode, ERα^G420C-LBD/9xGal4UAS, in the presence of 20 nM E2, log10 of molar IC50, mean ± SEM) was greater than -5.00 M.

With C[C@]12C[C@H](O)[C@H]3[C@@H](CCC4=CC(=O)CC[C@@]43C)[C@@H]1CC[C@@H]2C(=O)CO [Corticosterone, corticosterone] the EC50 ([1]; read-out: Log EC50 (converted)) was 8.13e-05 µM, the EC50 [4] was greater than 10 µM and the EC50 [2] was greater than 10 µM. For the same molecule, the EC50 ([3]; read-out: Log EC50 (converted)) was 0.00589 µM and the EC50 [5] was greater than 10 µM.

For C#C[C@]1(O)CC[C@H]2[C@@H]3CCC4=Cc5oncc5C[C@]4(C)[C@H]3CC[C@@]21C [Danazol, danazol], the EC50 ([1]; read-out: Log EC50 (converted)) was greater than 10 µM, the EC50 [4] was 4.37 µM and the EC50 [2] was greater than 10 µM. For the same molecule, the EC50 ([3]; read-out: Log EC50 (converted)) was greater than 10 µM and the EC50 [5] was greater than 10 µM.

O=c1c(-c2ccc(O)cc2)coc2cc(O)cc(O)c12 [Genistein, genistein] showed an EC50 [1] greater than 10 µM and an EC50 [3] greater than 10 µM.

With C[C@]12CC[C@@H]3c4ccc(O)cc4C[C@@H](CCCCCCCCC[S+]([O-])CCCC(F)(F)C(F)(F)F)[C@H]3[C@@H]1CC[C@@H]2O (stereo partly shown) [ICI 182.780] the “Log EC50” value [1] was greater than -5.00 M, the “Log IC50” value ([1]; antagonist mode) was greater than -5.00 M and the “Log EC50” value [3] was greater than -5.00 M. For the same molecule, the “Log IC50” value [3] was greater than -5.00 M.

CCCc1c(-c2ccc(O)cc2)nn(-c2ccc(O)cc2)c1-c1ccc(O)cc1 [PPT, propyl pyrazole triol] gave an EC50 ([1]; read-out: Log EC50 (converted)) greater than 10 µM, an EC50 [4] of 0.0017 µM and an EC50 [2] greater than 10 µM. For the same molecule, the EC50 ([3]; read-out: Log EC50 (converted)) was greater than 10 µM and the EC50 [5] was 0.0115 µM.

CCC(=O)[C@@]1(C)CC[C@H]2[C@@H]3CCC4=CC(=O)CCC4=C3CC[C@@]21C [Promegestone (R5020), promegestone] showed an EC50 ([1]; read-out: Log EC50 (converted)) greater than 10 µM, an EC50 [4] greater than 10 µM and an EC50 [2] greater than 10 µM. The EC50 ([3]; read-out: Log EC50 (converted)) was greater than 3.16 µM and the EC50 [5] was greater than 10 µM.

C[C@]12C=CC(=O)C=C1CC[C@H]1[C@@H]3C[C@@H](O)[C@](O)(C(=O)CO)[C@@]3(C)C[C@H](O)[C@@]12F [Triamcinolone, triamcinolone] was tested, and the EC50 ([1]; read-out: Log EC50 (converted)) was 0.186 µM, the EC50 [4] was greater than 10 µM and the “luciferase activity in ERα reporter cell lines” value [4] was “did not find any sign of luciferase activity”. The EC50 ([3]; read-out: Log EC50 (converted)) was 0.00468 µM and the EC50 [5] was greater than 10 µM.

Reference: paper PMC3234597, “Two Panels of Steroid Receptor Luciferase Reporter Cell Lines for Compound Profiling” (Combinatorial Chemistry & High Throughput Screening, 2011)
